From patent publication EP4778921A1, “SALT FORM AND CRYSTAL FORM OF NITROGEN-CONTAINING HETEROCYCLIC DERIVATIVE INHIBITOR, AND PREPARATION METHOD THEREFOR AND USE THEREOF” (Shanghai Hansoh Biomedical Co., Ltd., priority 2023, dated 2025)
Values after ≈ are worked out from the molar mass of the structure shown.

Experiments:
Type in all cases: physicochemical
[1] = Stability experiment of solid crystal form A of free base; settings: 60°C; room temperature, 92.5% RH; 50°C, RH = 75%; 5, 10, 20 and 30 days
Method: 2.1 Experimental objective: To investigate the physical and chemical stability for crystal form A of free base under the conditions of a high temperature of 60°C, room temperature and a high humidity of 92.5% RH and 50°C, RH = 75% for 5, 10, 20 and 30 days and provide a basis for the storage of the compound.
2.2 Experimental scheme: About 2 mg of crystal form A of free base was taken and investigated under the conditions of 60°C in an oven, room temperature and a high humidity of RH = 92.5%, and 50°C, RH = 75% for 5, 10, 20 and 30 days. The content was determined by HPLC and an external standard method, and the changes of related substances were calculated by a chromatographic peak area normalization method (see 1.2.3 for the chromatographic conditions).

[2] = Hygroscopicity experiment (crystal forms of salts and crystal form A of free base)
Description: • 2.1 Experimental objective: The hygroscopicity of different crystal forms of salts of the compound was investigated under various relative humidity conditions to provide a basis for screening and storage of the crystal forms of salts of the compound. • 2.2 Experimental scheme: The crystal forms of salts of the compound were placed in saturated water vapor at different relative humidities to reach a dynamic equilibrium between the compound and the water vapor.
3.1 Experimental objective: The hygroscopicity of crystal form A of free base of the compound was investigated under various relative humidity conditions to provide a basis for screening and storage of the crystal forms of the compound.
3.2 Experimental scheme: The crystal form A of free base of the compound was placed in saturated water vapor at different relative humidities to reach a dynamic equilibrium between the compound and the water vapor. The percentage weight gain of the compound due to moisture absorption was calculated after the equilibrium.

[3] = Solubility experiments in different media, crystal form A of free base; settings: thermodynamic from solid
Method: 4.1 Experimental objective: The solubility of the crystal form A of free base in media such as pH1 buffer, artificial simulated gastric fluid (FaSSGF), fasted-state artificial simulated intestinal fluid (FaSSIF), and fed-state artificial simulated intestinal fluid (FeSSIF) was tested to provide a basis for the evaluation of the potential of the crystal form being manufactured as a drug.
4.2 Experimental scheme: About 1.0 mg of crystal form A of free base was weighed into 2 mL glass vials, and pH1 buffer solution, fasted-state artificial simulated intestinal fluid (FaSSIF), fed-state artificial simulated intestinal fluid (FeSSIF), and fasted-state simulated gastric fluid (FaSSGF) (1 mL for each medium) were added to each vial, respectively. The vials were placed on a micromixer for shaking overnight with the temperature set at 37°C. After 24 h, the sample solutions were filtered through 0.45 µm nylon filter membranes, and the filtrates were collected. The concentrations were determined by an external standard method and HPLC.

**Q.** Which stability [1] does the source give for `CC(C)c1c(F)cc(N2C[C@H](N(C)S(C)(=O)=O)[C@H]2C)c2cnc(Nc3ccnc(-c4cn(C)nc4Cl)n3)cc12` [crystal form A of free base, N-((2R,3S)-1-(3-((2-(3-chloro-1-methyl-1H-pyrazol-4-yl)pyrimidin-4-yl)amino)-6-fluoro-5-isopropylisoquinolin-8-yl)-2-methylazetidin-3-yl)-N-methylmethanesulphonamide] here?
**A.** Its stability is “excellent stability”.

**Q.** What about the “weight gain after moisture absorption” value ([2]; RH 80%) of the same compound?
**A.** The value was “about 0.1719%”.

**Q.** And the hygroscopicity ([2]; RH 80%, result in words)?
**A.** Its hygroscopicity is “weak hygroscopicity”.

**Q.** What about the “crystal form transformation (XRPD pattern)” value ([2]; after 1 cycle of moisture absorption and desorption, 0-95% relative humidity) of the same compound?
**A.** Its value is “no crystal form transformation occurred”.

**Q.** What about the solubility at 24 h ([3]; fassgf or other biorelevant, FaSSGF (simulated gastric fluid, fasted), 37°C) of the same compound?
**A.** Its solubility at 24 h is 8 µg/mL (≈ 14 µM).

**Q.** And the solubility at 24 h ([3]; pH1 buffer, simulated gastric fluid, pH 1, 37°C)?
**A.** Its solubility at 24 h is 558 µg/mL (≈ 974 µM).

**Q.** What about the solubility at 24 h ([3]; FaSSIF (simulated intestinal fluid, fasted), 37°C) of the same compound?
**A.** Its solubility at 24 h is 10 µg/mL (≈ 17.4 µM).

**Q.** And the solubility at 24 h ([3]; FeSSIF (simulated intestinal fluid, fed), 37°C)?
**A.** The solubility at 24 h was 209 µg/mL (≈ 365 µM).
